Measured values taken from patent US20240299394A1, “TARGETED TREATMENT FOR SKIN FRAGILITY DISEASES” (University of Washington, priority 2023, published 2024).
“Also recorded” adds a separate entry of the source.

Experiments:
[1] = tested on: HET or KO keratinocyte sheets; assay: Monolayer mechanical dissociation assay, SERCA2-deficient keratinocytes; assay type: cell-based, human; conditions: HET or KO monolayers; trametinib 1 μM 48 hours; PD98059 20 μM 24 hours
Protocol: (§1) Dispase-based mechanical dissociation assays were carried out as described (Simpson C L, et al. Am J Pathol. 2010; 177(6): p. 2921-37). Keratinocytes were plated at a density of 1×10^6 cells per well of 6-well cell culture dishes. Upon reaching confluence, the calcium concentration of the medium was adjusted to 1.3 mM. Vehicle control (DMSO) or chemical inhibitors were added at the following concentrations: […] After 24 to 72 hours, monolayers were washed with PBS and then incubated with 500 μL dispase (5 U/ml) in Hank's balanced salt solution (Stemcell Technologies of Vancouver, CA, Cat. #07913) for 30 minutes at 37° C. Next, 4.5 ml PBS was added to the wells and all liquid plus released monolayers were transferred into 15 mL conical tubes, which were placed together in a rack and inverted 5-10 times to induce mechanical stress. Monolayer fragments were transferred back into 6-well cell culture plates and imaged with a 12-megapixel digital camera. Fragments were counted in Fiji.

[2] = tested on: NHEK monolayers; assay: Monolayer mechanical dissociation assay, SERCA2 inhibition with thapsigargin; assay type: cell-based, human; conditions: 24 hours; for integrity of epithelial sheets despite SERCA2 inhibition: with 1 μM TG, 1 μM Tram, 10 μM U0126, 20 μM PD98059, 1 μM dabrafenib
Protocol: as §1

[3] = tested on: organotypic epidermis grown from NHEKs; assay: Histology (H&E) of organotypic epidermis treated with TG; assay type: cell-based, human
[4] = tested on: NHEK monolayers; assay: Monolayer mechanical dissociation assay, B-RAF inhibitor model of Grover disease; assay type: cell-based, human; conditions: co-treatment with Dab or Vem; trametinib 1 μM, U0126 10 μM, PD98059 20 μM; 24 h
Protocol: Dispase-based mechanical dissociation assays were carried out as described (70). Keratinocytes were plated at a density of 1×10^6 cells per well of 6-well cell culture dishes. Upon reaching confluence, the cells were switched into E-medium. Vehicle control (DMSO) or chemical inhibitors were added at the following concentrations: Dabrafenib (1 μM), vemurafenib (10 μM) trametinib (1 μM), U0126 (10 μM), or PD98059 (20 μM). After 24 h, monolayers were washed with PBS and then incubated with 500 μL dispase (5 U/ml) in Hank's balanced salt solution (Stemcell Technologies of Vancouver, Canada, Cat. #07913) for 30 minutes at 37° C. Next, 4.5 mL PBS was added to the wells and all liquid plus released monolayers were transferred into 15 mL conical tubes, which were placed together in a rack and inverted 1-10 times to induce mechanical stress. Monolayer fragments were transferred back into 6-well cell culture plates and imaged with a 12-megapixel digital camera. Fragments were counted in Fiji.

[5] = tested on: HET cells (SERCA2-depleted keratinocytes, THEKs); assay: RT-qPCR of keratinocyte mRNA transcripts; assay type: cell-based, human; conditions: HET cells in E-medium 24 hours; trametinib 1 μM, U0126 10 μM, PD184352 10 μM
Protocol: THEKs were seeded at a density of 1×10^6 cells per well of 6-well cell culture dishes in complete KSFM. Upon reaching confluence, KSFM was replaced with E-medium containing vehicle control (DMSO) or inhibitors at the following concentrations: Trametinib (1 μM), U0126 (10 μM), or PD184352 (10 μM). At the indicated time points, cell culture medium was removed and cells were washed once with PBS. RNA was extracted using the NucleoSpin RNA Plus Kit (Machery-Nagel of Duren, Germany) followed by reverse-transcription with the iScript cDNA synthesis kit (Bio-Rad of Hercules, CA) according to the manufacturer's instructions. Copy DNAs, also referred to as complementary DNAs (cDNAs) were diluted 5-fold and 2 μL of the resulting cDNAs were used for each 10 μL quantitative polymerase chain reaction (qPCR) assay. Real-time qPCR assays were carried out using the TaqMan Gene expression master mix (Applied Biosystems of Waltham, MA) according to the manufacturer's protocol. Pre-designed TaqMan probes from Thermo-Fisher were used for quantification of human Actb (Hs01060665_g1), Krt1 (Hs00196158_m1), Krt10 (Hs00166289_m1), Krt14 (Hs00265033_m1), Dsg1 (Hs00355084_m1), Alox12b (Hs00153961_m1), Alox15b (Hs00153988_m1), Ifi27 (Hs01086373_g1), Trpv3 (Hs00376854_m1), Trpv4 (Hs01099348_m1), or Notch1 (Hs01062014_m1). The housekeeping gene Actb was used as an endogenous control and mRNA fold changes were determined using the 2^(−ΔΔCt) method.

[6] = tested on: NHEKs; assay: KRT10 immunostaining of TG-treated keratinocytes; assay type: cell-based, human; conditions: 1 μM TG alone, 48 hours
Protocol: Keratinocytes were grown to confluence in 35 mm, glass-bottom cell culture dishes (MatTek of Ashland, MA, #P35G-1.5-20-C). For staining keratins and desmosomal proteins, cells were fixed in ice-cold 100% methanol at −20° C. for 2 minutes, allowed to dry, then re-hydrated in PBS. For staining other proteins, cells were fixed in 4% paraformaldehyde for 10 minutes at 37° C. Fixed cells were then incubated with blocking buffer [0.5% (w/v) bovine serum albumin (BSA, Sigma), 10% (w/v) normal goat serum (NGS, Sigma) in PBS] for 30 minutes at 37° C. Cells were then washed with PBS. Primary antibodies were diluted in 0.5% (w/v) BSA in PBS and incubated on the cells overnight at 4° C. Primary antibody dilutions were as follows: rabbit anti-SERCA2 (1:200), rabbit anti-cytokeratin 10 (1:2,000), mouse anti-Desmoglein 1 (1:100), mouse anti-Desmoglein 2 (1:100), mouse anti-Desmoglein 3 (1:100), mouse anti-Plakoglobin (1:100), rabbit anti-PERK1/2 (1:400), and mouse anti-ERK1/2 (1:400). Cells were washed three times with PBS, then incubated with species-specific secondary antibodies diluted at 1:300 (with or without Hoechst at 1:500) in 0.5% (w/v) BSA in PBS for 30 min at 37° C. […]
Fluorescence microscopy images were analyzed using Fiji software. Quantification of fluorescence intensity was performed in a blinded manner using non-visibly identifiable microscopy images. […]

[7] = tested on: organotypic cultures of NHEKs; assay: Immunostaining of KRT10 and pERK in organotypic epidermis treated with TG; assay type: cell-based, human; conditions: 1 μM TG, 48 hours
Protocol: Paraffin-embedded formalin-fixed tissue cross-sections on glass slides were incubated at 65° C. for 2 h. Sections were prepared for staining by immersion in 3 baths of xylenes (Thermo-Fisher) for 5 min each, followed by 3 baths of 95% ethanol for 5 min each, then 70% ethanol for 5 minutes, and finally 3 baths of PBS for 5 min each. Slides were then submerged in antigen retrieval solution [0.1 M sodium citrate (pH 6.0) with 0.05% (v/v) Tween-20] and heated to 95° C. for 15 min. Slides were allowed to cool to room temperature and then washed with PBS. Tissue sections were encircled with a hydrophobic barrier using a PAP pen. Tissue sections were incubated in blocking buffer [0.5% (w/v) BSA, 10% (v/v) NGS in PBS] for 30 minutes at 37° C. in a humidified chamber. […]
Fluorescence images of immunostained tissue sections were captured by SDC microscopy as above and analyzed using Fiji. Quantification of fluorescence intensity was performed in using non-visibly labeled images from immunostained tissue cross-sections. The Fiji “Measure” function was used to calculate the mean intensity of the fluorescence signal and the mean background fluorescence intensity, which was subtracted from each value. The net fluorescence intensity was averaged across multiple non-overlapping HPF and the values from control cultures were normalized to an average value of 1.

[8] = B-RAF inhibitor monotherapy for cancer (Carlos G, et al. 2015); cited from earlier work

Row | SMILES | integrity of epithelial sheets despite SERCA2 inhibition [2] | integrity of keratinocyte sheets despite B-RAF inhibition [4] | DSG1 mRNA expression [5] | KRT1 mRNA expression [5] | KRT10 mRNA expression [5] | KRT14 mRNA levels [5] | also measured
1 | COc1cccc(-c2cc(=O)c3ccccc3o2)c1N [PD98059] | restored | comparably rescued cell cohesion | – | – | – | – | resistance of keratinocyte sheets to mechanical stress (number of fragments) [1]: similarly rescued cohesion; effect on TG-induced loss of keratinocyte cohesion ([3]; 1 μM TG plus 20 μM PD98059 or 1 μM trametinib): mitigated; also recorded: improved keratinocyte cohesion; effect on TG-induced retention of nuclei in cornified layers / cornification ([3]; 1 μM TG plus 20 μM PD98059 or 1 μM trametinib, 48 hours): reduced TG-induced retention of nuclei in the cornified layers; also recorded: normalization of cornification
2 | O=C(NOCC1CC1)c1ccc(F)c(F)c1Nc1ccc(I)cc1Cl [PD184352] | – | – | sufficient to augment expression | sufficient to augment expression | sufficient to augment expression | did not significantly alter | –
3 | C/C=C(/C)C(=O)O[C@H]1C(C)=C2[C@H]([C@@H]1OC(=O)CCCCCCC)[C@@](C)(OC(C)=O)C[C@H](OC(=O)CCC)[C@@]1(O)[C@H]2OC(=O)[C@@]1(C)O [TG, thapsigargin] | – | – | – | – | – | – | epithelial sheet fragmentation ([2]; 1 μM TG alone): significant increase in epithelial sheet fragmentation; also recorded: readily fragmented; KRT10 up-regulation by immunostaining [6]: suppressed their ability to up-regulate KRT10; keratinocyte cohesion in organotypic epidermis ([3]; 1 μM TG alone, 48 hours): disrupted keratinocyte cohesion most notably between basal and suprabasal cell layers; also recorded: loss of keratinocyte cohesion; also recorded: separation between basal and suprabasal layers; retention of nuclei in cornified layers ([3]; 1 μM TG alone, 48 hours): retention of nuclei in the cornified layers; KRT10 immunostaining in organotypic epidermis [7]: reduction in KRT10; pERK (ERK activation) in organotypic epidermis [7]: ERK hyper-activation
4 | N#CC(=C(/N)Sc1ccccc1N)/C(C#N)=C(\N)Sc1ccccc1N [U0126] | restored | comparably rescued cell cohesion | sufficient to augment expression | sufficient to augment expression | sufficient to augment expression | did not significantly alter | –
5 | CCCS(=O)(=O)Nc1ccc(F)c(C(=O)c2c[nH]c3ncc(-c4ccc(Cl)cc4)cc23)c1F [vemurafenib] | – | – | – | – | – | – | patients in whom GD was seen [8]: 38.9%
